ChEMBL document CHEMBL1201862, “PubChem BioAssay data set” (2004)
Activity calls are given as the source filed them.

Tests used:
CAAX prenyl protease 2 = CAAX prenyl protease 2 (Saccharomyces cerevisiae S288c, UniProt Q03530); format: biochemical
[1] = molecular target: Eukaryotic translation initiation factor 4H (Homo sapiens, UniProt Q15056); test: eIF4H inhibition in translation initiation, SAR follow-up (AID 435011); format: functional
[2] = molecular target: Polyadenylate-binding protein 1 (Homo sapiens, UniProt P11940); test: PABP inhibition in translation initiation, SAR follow-up (AID 435018); format: functional
Sequence of Polyadenylate-binding protein 1 (P11940 whole entry): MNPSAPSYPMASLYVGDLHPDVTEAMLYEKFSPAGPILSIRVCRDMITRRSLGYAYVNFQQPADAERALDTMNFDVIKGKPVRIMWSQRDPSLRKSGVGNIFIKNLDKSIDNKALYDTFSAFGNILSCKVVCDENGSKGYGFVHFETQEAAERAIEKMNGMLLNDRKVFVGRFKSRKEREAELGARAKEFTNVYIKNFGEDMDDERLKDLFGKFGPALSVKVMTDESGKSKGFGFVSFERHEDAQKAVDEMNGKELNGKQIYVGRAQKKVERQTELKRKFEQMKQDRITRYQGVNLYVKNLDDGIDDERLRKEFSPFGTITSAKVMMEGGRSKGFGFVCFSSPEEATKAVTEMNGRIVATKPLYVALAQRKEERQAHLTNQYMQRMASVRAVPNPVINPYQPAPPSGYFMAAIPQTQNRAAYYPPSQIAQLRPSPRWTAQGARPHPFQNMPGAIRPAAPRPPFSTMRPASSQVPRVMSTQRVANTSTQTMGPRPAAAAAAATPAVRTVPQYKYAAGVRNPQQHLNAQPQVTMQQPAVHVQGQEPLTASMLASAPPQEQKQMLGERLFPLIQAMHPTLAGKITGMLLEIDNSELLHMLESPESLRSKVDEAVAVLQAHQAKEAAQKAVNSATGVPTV

Mu-type opioid receptor = Mu-type opioid receptor (Homo sapiens, UniProt P35372); test: SAR Analysis of Antagonists of the MOR Receptor using an Image-Based Assay - Set 3. [Related pubchem assays (depositor defined):AID1777, AID1785, AID1786, AID1966, AID2133, AID2136, AID2284, AID2285, AID2420]; format: functional
Sequence of Mu-type opioid receptor (P35372 whole entry): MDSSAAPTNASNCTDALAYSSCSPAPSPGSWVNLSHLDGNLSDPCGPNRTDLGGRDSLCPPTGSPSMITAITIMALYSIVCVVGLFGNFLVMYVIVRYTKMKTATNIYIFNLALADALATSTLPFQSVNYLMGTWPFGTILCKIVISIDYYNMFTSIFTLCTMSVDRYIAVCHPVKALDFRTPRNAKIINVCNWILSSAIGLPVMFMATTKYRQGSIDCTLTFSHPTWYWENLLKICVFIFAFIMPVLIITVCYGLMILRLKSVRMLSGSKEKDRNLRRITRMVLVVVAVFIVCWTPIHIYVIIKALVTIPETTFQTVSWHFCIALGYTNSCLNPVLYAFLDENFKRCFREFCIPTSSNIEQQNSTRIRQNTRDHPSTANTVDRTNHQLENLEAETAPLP

[3] = molecular target: Delta-type opioid receptor (Homo sapiens, UniProt P41143); test: SAR Analysis of Antagonists of the DOR Receptor using an Image-Based Assay - Set 3. [Related pubchem assays (depositor defined):AID1777, AID1785]; format: functional;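 also: U2OS cells expressing DOR1 and beta-arrestin GFP stimulated with 100 nM SNC80; imaging of GFP-tagged beta-arrestin moving into spots after receptor activation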
Sequence of Delta-type opioid receptor (P41143 whole entry): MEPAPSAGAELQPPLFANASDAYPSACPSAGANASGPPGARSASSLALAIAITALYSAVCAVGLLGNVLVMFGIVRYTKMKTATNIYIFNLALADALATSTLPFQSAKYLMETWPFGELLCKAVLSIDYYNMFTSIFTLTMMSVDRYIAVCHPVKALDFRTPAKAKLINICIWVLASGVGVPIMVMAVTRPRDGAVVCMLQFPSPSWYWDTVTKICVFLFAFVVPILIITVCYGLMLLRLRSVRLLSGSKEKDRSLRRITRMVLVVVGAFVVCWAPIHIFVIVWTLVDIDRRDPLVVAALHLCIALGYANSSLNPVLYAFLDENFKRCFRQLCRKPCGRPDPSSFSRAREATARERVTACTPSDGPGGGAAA

[4] = molecular target: T1, Kappa-type opioid receptor (Homo sapiens, UniProt P41145); test: SAR analysis of small molecule antagonists of the kappa opioid receptor via a luminescent beta-arrestin assay - Set 3. [Related pubchem assays (depositor defined):AID1777, AID1778, AID1785, AID1786, AID1966, AID2133, AID2136, AID2285, AID2495]; format: functional
T1 sequence (P41145 whole entry): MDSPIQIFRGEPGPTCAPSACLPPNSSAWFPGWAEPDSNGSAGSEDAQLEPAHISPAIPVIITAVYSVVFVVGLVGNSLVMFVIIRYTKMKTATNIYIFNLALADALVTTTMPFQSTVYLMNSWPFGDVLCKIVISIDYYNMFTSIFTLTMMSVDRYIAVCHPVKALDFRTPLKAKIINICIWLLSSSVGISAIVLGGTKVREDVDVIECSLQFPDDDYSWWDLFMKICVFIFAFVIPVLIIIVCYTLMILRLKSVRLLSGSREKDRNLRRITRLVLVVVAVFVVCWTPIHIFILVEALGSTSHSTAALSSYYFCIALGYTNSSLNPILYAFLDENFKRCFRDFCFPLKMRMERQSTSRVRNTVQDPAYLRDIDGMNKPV

[5] = molecular target: T1, Kappa-type opioid receptor; test: SAR analysis of Antagonists of the Kappa Opioid Receptor (KOR) using an Image-Based Assay - Set 3. [Related pubchem assays (depositor defined):AID1777, AID1785]; format: functional
Bcl-2-like protein 10 = Bcl-2-like protein 10 (Homo sapiens, UniProt Q9HD36); test: displacers of TR3 peptide from Bcl-B, primary screen, selectivity assay for Bfl-1 inhibitor project, biochemical, fluorescence polarization, FITC-TR3 peptide (AID 748);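 also: fluorescence polarization from a fluorescein-labelled TR3 peptide binding purified Bcl-B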
Sequence of Bcl-2-like protein 10 (Q9HD36 whole entry): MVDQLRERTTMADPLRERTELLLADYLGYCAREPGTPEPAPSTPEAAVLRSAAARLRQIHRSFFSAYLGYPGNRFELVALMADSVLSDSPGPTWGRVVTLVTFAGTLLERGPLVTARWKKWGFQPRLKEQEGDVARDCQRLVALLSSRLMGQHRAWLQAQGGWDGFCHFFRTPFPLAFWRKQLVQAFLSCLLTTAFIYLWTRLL

Large T antigen = Large T antigen (Simian virus 40, UniProt P03070); format: functional, Betapolyomavirus macacae;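 also: Confirmatory-stage PubChem screen for compounds that inhibit SV40 T antigen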
Sequence of Large T antigen (P03070 whole entry): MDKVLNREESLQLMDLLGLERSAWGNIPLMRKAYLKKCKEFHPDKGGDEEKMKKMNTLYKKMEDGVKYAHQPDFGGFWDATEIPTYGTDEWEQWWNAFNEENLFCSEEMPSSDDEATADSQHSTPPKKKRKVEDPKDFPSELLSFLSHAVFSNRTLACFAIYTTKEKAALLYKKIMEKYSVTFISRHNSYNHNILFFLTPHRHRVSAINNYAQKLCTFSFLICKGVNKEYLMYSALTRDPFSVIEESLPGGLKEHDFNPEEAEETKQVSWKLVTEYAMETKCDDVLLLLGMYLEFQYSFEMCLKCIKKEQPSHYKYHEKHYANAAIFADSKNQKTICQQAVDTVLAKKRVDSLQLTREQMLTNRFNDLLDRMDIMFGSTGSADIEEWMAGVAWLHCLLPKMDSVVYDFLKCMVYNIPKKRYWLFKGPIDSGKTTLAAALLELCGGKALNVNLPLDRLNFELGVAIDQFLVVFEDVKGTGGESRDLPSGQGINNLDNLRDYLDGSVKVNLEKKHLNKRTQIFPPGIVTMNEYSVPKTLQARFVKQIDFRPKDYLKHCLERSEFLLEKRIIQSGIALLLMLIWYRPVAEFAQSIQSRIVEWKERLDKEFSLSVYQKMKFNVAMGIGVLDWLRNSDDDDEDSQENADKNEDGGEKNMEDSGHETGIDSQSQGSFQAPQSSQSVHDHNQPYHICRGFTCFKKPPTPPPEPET

Caspase-3 = molecular target: T2, Caspase-3 (Homo sapiens, UniProt P42574); format: functional;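 also: Dose-response selectivity test against caspase-3 for candidate inhibitors of sentrin-specific proteases (SENPs)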
T2 sequence (P42574 whole entry): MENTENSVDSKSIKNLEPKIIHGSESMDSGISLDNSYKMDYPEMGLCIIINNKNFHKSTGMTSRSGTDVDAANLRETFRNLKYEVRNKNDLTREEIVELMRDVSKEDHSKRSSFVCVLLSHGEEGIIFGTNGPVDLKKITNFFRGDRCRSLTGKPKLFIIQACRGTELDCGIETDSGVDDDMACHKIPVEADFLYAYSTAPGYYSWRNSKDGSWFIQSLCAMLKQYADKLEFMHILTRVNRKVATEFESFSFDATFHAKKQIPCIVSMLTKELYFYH

[6] = molecular target: T3, Sentrin-specific protease 7 (Homo sapiens, UniProt Q9BQF6); format: functional;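 also: Luminescence-based dose-response confirmation of ultra-high-throughput screening hits, measuring inhibition of SENP7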
T3 sequence (Q9BQF6 whole entry): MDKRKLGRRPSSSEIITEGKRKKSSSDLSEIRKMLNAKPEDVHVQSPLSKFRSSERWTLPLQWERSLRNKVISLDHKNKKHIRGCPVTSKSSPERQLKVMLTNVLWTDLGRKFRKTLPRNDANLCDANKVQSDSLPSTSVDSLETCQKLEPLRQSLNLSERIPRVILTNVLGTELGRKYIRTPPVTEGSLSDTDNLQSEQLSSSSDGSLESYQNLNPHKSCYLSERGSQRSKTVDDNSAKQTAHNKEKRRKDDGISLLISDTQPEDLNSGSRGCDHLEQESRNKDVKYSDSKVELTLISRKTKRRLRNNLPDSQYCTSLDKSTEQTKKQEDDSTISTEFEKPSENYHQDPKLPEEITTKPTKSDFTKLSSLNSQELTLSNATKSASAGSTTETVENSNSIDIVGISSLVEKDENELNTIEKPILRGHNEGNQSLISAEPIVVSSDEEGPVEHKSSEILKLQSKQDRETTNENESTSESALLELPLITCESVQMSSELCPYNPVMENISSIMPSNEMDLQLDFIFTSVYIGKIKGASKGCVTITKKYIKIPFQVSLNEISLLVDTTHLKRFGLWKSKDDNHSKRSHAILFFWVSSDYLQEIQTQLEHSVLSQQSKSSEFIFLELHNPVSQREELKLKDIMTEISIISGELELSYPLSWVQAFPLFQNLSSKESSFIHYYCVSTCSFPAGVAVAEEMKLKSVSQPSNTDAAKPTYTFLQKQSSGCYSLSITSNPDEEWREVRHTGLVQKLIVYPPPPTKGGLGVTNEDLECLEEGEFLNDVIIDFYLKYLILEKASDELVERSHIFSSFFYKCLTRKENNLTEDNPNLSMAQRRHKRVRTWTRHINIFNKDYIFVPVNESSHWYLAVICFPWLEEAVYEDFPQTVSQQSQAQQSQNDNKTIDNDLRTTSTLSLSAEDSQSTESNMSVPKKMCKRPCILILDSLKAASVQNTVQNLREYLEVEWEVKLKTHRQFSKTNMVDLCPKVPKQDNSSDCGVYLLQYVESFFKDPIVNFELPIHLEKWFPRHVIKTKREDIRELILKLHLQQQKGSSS

[7] = molecular target: T4, Sentrin-specific protease 6 (Homo sapiens, UniProt Q9GZR1); format: functional;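 also: Luminescence-based dose-response confirmatory assay of SENP6 inhibition, following up an ultra-high-throughput screen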
T4 sequence (Q9GZR1 whole entry): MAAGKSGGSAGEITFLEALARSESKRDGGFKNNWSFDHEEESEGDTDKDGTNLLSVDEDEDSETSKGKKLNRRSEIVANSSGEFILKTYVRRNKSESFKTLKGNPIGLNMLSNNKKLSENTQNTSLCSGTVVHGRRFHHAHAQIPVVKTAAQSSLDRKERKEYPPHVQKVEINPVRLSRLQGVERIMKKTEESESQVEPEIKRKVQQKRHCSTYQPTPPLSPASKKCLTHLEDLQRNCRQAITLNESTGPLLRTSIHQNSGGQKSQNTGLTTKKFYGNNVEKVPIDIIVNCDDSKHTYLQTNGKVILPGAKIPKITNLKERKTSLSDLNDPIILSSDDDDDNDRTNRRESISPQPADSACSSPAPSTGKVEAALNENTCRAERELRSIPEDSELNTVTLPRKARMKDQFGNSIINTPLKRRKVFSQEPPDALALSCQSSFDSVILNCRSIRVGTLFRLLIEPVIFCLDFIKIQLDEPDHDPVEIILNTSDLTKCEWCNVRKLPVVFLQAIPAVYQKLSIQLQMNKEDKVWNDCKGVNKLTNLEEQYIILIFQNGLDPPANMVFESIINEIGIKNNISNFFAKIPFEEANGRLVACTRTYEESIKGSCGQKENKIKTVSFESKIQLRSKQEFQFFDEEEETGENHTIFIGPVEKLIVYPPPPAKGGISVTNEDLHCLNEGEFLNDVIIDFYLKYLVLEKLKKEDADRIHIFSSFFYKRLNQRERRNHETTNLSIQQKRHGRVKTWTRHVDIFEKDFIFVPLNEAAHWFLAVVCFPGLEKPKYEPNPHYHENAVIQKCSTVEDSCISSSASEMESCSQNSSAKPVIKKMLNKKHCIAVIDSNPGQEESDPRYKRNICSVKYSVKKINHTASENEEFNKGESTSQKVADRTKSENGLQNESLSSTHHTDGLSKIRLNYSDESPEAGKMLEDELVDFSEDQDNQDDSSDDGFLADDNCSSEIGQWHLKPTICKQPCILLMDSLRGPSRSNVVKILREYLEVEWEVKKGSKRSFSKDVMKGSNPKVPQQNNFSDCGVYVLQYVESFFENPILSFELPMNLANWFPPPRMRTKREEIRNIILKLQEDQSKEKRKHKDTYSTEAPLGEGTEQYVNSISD

[8] = molecular target: T5, Sentrin-specific protease 8 (Homo sapiens, UniProt Q96LD8); format: functional;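 also: luminescence read-out of SENP8 inhibition, dose-response confirmation following an ultra-high-throughput screen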
T5 sequence (Q96LD8 whole entry): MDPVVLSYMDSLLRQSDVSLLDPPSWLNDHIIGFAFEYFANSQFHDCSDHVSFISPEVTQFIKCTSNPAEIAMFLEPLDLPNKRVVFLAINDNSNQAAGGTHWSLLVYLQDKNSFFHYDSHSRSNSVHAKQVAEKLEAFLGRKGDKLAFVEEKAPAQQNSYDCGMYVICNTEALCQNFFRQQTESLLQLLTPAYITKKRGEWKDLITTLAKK

Sequence of CAAX prenyl protease 2 (Q03530 whole entry): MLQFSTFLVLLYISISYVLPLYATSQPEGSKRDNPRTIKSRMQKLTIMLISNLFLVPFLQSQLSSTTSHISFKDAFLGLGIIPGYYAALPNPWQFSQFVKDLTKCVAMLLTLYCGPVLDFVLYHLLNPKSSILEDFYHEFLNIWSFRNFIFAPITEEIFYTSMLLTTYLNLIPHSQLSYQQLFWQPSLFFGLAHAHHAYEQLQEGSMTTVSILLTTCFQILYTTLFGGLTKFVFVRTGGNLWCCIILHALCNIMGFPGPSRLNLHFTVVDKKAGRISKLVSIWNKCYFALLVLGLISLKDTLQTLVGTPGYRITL

| IC50 (Mu-type opioid receptor) | IC50 [3] | IC50 [4] | IC50 [5] | SMILES | IC50 [1] | IC50 [2] | other results |
| --- | --- | --- | --- | --- | --- | --- | --- |
| > 32 µM (inactive) | > 32 µM (inactive) | > 20 µM (inactive) | > 32 µM (inactive) | O=C(NCCN1Cc2ccccc2C1)c1ccc(CNS(=O)(=O)c2ccc(Br)cc2)cc1 | – | – | – |
| > 32 µM (inactive) | > 32 µM (inactive) | > 20 µM (inactive) | > 32 µM (inactive) | CN1CCN(CCCNC(=O)Cn2c(=O)c3cccn3c3cccnc32)CC1 | – | – | – |

Second part, the compound before the results:

| SMILES | IC50 (Mu-type opioid receptor) | IC50 [3] | IC50 [4] | IC50 [5] | IC50 [1] | IC50 [2] | other results |
| --- | --- | --- | --- | --- | --- | --- | --- |
| O=S(=O)(c1ccccc1)c1nc(-c2ccco2)oc1N1CCCCC1 | – | – | – | – | – | – | AC50 (CAAX prenyl protease 2): 7.38 µM (active) |
| CS(=O)(=O)c1ccccc1C(=O)Nc1cccc2ncccc12 | – | – | – | – | 16.1 µM (active) | 20.2 µM (active) | – |
| O=C(Nc1ccccc1Cl)C1CCN(C(=O)c2cccs2)CC1 | – | – | – | – | > 100 µM (inactive) | > 100 µM (inactive) | – |
| Cc1csc(N/N=C/c2ccc(O)c([N+](=O)[O-])c2)n1 | – | – | – | – | – | – | IC50 (Bcl-2-like protein 10): > 100 µM (inactive); IC50 (Large T antigen): 22.1 µM (active); IC50 (Caspase-3): 3.15 µM (active); IC50 [6]: 4.19 µM (active); IC50 [7]: 9.25 µM (active); IC50 [8]: 8.45 µM (active) |
